Where two headings read alike, the source gives them in different places.
Target: T1, SIRT1 (Homo sapiens, UniProt Q96EB6)
T1 sequence (Q96EB6 1-747): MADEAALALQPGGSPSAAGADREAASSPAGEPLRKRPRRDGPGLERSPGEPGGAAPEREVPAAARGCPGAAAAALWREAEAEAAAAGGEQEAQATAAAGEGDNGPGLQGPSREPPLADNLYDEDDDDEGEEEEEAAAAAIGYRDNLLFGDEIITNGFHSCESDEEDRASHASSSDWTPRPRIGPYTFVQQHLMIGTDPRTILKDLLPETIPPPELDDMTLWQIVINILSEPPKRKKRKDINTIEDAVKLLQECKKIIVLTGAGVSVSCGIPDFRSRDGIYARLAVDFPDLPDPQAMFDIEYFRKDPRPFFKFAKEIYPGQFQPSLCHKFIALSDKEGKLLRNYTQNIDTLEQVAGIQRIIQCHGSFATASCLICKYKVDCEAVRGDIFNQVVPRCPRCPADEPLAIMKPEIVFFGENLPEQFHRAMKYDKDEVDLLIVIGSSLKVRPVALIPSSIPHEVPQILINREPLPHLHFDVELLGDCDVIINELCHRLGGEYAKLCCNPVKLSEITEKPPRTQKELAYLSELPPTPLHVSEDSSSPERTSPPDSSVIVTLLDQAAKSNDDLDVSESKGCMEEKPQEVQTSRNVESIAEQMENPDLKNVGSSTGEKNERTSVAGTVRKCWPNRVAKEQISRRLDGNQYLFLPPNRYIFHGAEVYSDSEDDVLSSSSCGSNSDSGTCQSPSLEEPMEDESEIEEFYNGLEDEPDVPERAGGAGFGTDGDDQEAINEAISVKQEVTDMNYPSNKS
Assay: Mass spectrometry based SIRT1 deacetylase activation assay (acetylated p53-derived peptide substrate)
Assay type: biochemical

[1] = 0.5 μM peptide substrate, 120 μM βNAD+, 10 nM SIRT1, 25 minutes at 25° C.
[2] = 0.5 μM peptide substrate, 120 μM βNAD+, 10 nM SIRT1, 25 min at 25° C.
[3] = 0.5 μM peptide substrate, 120 μM βNAD+, 10 nM SIRT1, 25 min at 25° C., read-out: EC1.5

Row | EC1.5 [1] | Fold Act. (percent maximum fold activation) [1] | Fold Act. (percent maximum fold activation) [2] | EC1.5 [3] [nM] | SMILES | also measured
1 | C (EC1.5 >25 uM) | B (Fold Activation <200%) | – | – | O=C(Nc1ncc(CN2CCOCC2)s1)c1cccc2[nH]c(-c3ccccc3C(F)(F)F)nc12 [Compound 780, N-(5-(morpholinomethyl)thiazol-2-yl)-2-(2-(trifluoromethyl)phenyl)-1H-benzo[d]imidazole-4-carboxamide] | –
2 | – | – | A (Fold activation >200%) | 1000 to 25000 | O=C(Nc1cccc2[nH]c(-c3ccc(Cl)cc3C(F)(F)F)nc12)c1cccnc1 [Compound 418] | –
3 | A (EC1.5<1.0 uM) | A (Fold activation >200%) | – | – | O=C(Nc1cccnc1)c1cncc2[nH]c(-c3ccc(Cl)cc3C(F)(F)F)nc12 [Compound 650] | –
4 | – | – | – | – | Cc1cnc(NC(=O)c2cccc3[nH]c(-c4ccc(Cl)cc4C(F)(F)F)nc23)s1 [Compound 346] | EC1.5: A (EC1.5<1.0 uM); Fold Act. (percent maximum fold activation): A (Fold activation >200%)
5 | – | – | B (Fold Activation <200%) | > 25000 | CCCN1CCc2cc(-c3nc4c(C(=O)Nc5nccs5)cccc4[nH]3)ccc21 [Compound 444] | –
6 | A (EC1.5<1.0 uM) | A (Fold activation >200%) | – | – | O=C(Nc1cccnn1)c1cc(N2CCOCC2)cc2[nH]c(-c3ccccc3C(F)(F)F)nc12 [Compound 631] | –
7 | A (EC1.5<1.0 uM) | A (Fold activation >200%) | – | – | O=C(Nc1ccc(CN2CCNCC2)nc1)c1cccc2[nH]c(-c3ccccc3C(F)(F)F)nc12 [Compound 728] | –
8 | – | – | A (Fold activation >200%) | < 1000 | CN1CCOc2cc(-c3nc4c(C(=O)Nc5cccnn5)cccc4[nH]3)cnc21 [Compound 457] | –
9 | – | – | A (Fold activation >200%) | < 1000 | O=C(Nc1nccs1)c1cccc2[nH]c(-c3ccc(OC[C@@H](O)CO)cc3C(F)F)nc12 [Compound 594] | –
10 | – | – | – | – | Cn1nc(-c2ccccc2)cc1-c1nc2c(C(=O)Nc3nccs3)cccc2[nH]1 [Compound 253] | EC1.5: A (EC1.5<1.0 uM); Fold Act. (percent maximum fold activation): A (Fold activation >200%)
11 | – | – | – | – | O=C(N[C@H]1CCNC1)c1cccc2[nH]c(-c3cccc(C(F)(F)F)c3)nc12 [Compound 301] | EC1.5: C (EC1.5 >25 uM); Fold Act. (percent maximum fold activation): B (Fold Activation <200%)
12 | – | – | B (Fold Activation <200%) | > 25000 | O=C(NC1CCNCC1)c1cccc2[nH]c(-c3ccccc3C(F)(F)F)nc12 [Compound 431] | –
13 | – | – | – | – | O=C(Nc1nccs1)c1cccc2[nH]c(-c3ccc(Cl)cc3C(F)(F)F)nc12 [Compound 290] | EC1.5: A (EC1.5<1.0 uM); Fold Act. (percent maximum fold activation): A (Fold activation >200%)
14 | A (EC1.5<1.0 uM) | A (Fold activation >200%) | – | – | O=C(Nc1nccs1)c1cccc2[nH]c(-c3ccc(N4CC[C@H](F)C4)cc3C(F)F)nc12 [Compound 731] | –
15 | A (EC1.5<1.0 uM) | A (Fold activation >200%) | – | – | O=C(Nc1cccc(CN2CCOCC2)n1)c1cccc2[nH]c(-c3cccnc3)nc12 [Compound 850] | –
16 | – | – | – | – | O=C(Nc1ccccn1)c1cccc2[nH]c(-c3ccc(-c4nnn[nH]4)cc3)nc12 [Compound 342] | EC1.5: A (EC1.5<1.0 uM); Fold Act. (percent maximum fold activation): A (Fold activation >200%)
17 | C (EC1.5 >25 uM) | B (Fold Activation <200%) | – | – | FC(F)(F)c1ccccc1-c1nc2c(NCc3cccnc3)cccc2[nH]1 [Compound 618] | –
18 | B (EC1.5 1-25 uM) | A (Fold activation >200%) | – | – | CCCN1CCCc2ccc(-c3nc4c(C(=O)Nc5ncc(C)s5)cccc4[nH]3)cc21 [Compound 602] | –
19 | – | – | A (Fold activation >200%) | < 1000 | Cc1nc(NC(=O)c2cccc3[nH]c(-c4ccc(N5CCOCC5)cc4C(F)(F)F)nc23)sc1C [Compound 589] | –
20 | A (EC1.5<1.0 uM) | A (Fold activation >200%) | – | – | O=C(Nc1ccncn1)c1cccc2[nH]c(-c3ccc(N4CCCC4)cc3C(F)F)nc12 [Compound 776] | –
21 | A (EC1.5<1.0 uM) | A (Fold activation >200%) | – | – | O=C(Nc1ccccn1)c1cncc2[nH]c(-c3ccc(OC[C@@H](O)CO)cc3C(F)F)nc12 [Compound 773] | –

Row | EC1.5 [1] | Fold Act. (percent maximum fold activation) [1] | Fold Act. (percent maximum fold activation) [2] | EC1.5 [3] [nM] | SMILES | also measured
22 | – | – | A (Fold activation >200%) | < 1000 | O=C(Nc1nccs1)c1cccc2[nH]c(-c3ccc(Cl)cc3C(F)F)nc12 [Compound 562] | –
23 | – | – | A (Fold activation >200%) | 1000 to 25000 | O=C(Nc1ccccn1)c1cccc2[nH]c(-c3cc(F)ccc3OCCN3CCOCC3)nc12 [Compound 584] | –
24 | – | – | B (Fold Activation <200%) | > 25000 | O=C(Nc1cccnc1)c1cccc2[nH]c(-c3ccnc(N4CCCC4)c3)nc12 [Compound 568] | –
25 | – | – | A (Fold activation >200%) | 1000 to 25000 | O=C(Nc1ccccn1)c1cccc2[nH]c(-c3ccccc3OCCN3CCNCC3)nc12 [Compound 484] | –
26 | – | – | A (Fold activation >200%) | < 1000 | CS(=O)(=O)c1cccc(-c2nc3c(C(=O)Nc4nccs4)cccc3[nH]2)c1 [Compound 402] | –
27 | – | – | B (Fold Activation <200%) | 1000 to 25000 | O=C(Nc1nccs1)c1cccc2[nH]c(-c3ccccc3OCCN3CC[C@@H](F)C3)nc12 [Compound 507] | –
28 | A (EC1.5<1.0 uM) | A (Fold activation >200%) | – | – | O=C(Nc1cccnc1)c1cncc2[nH]c(-c3ccccc3C(F)(F)F)nc12 [Compound 637] | –
29 | – | – | B (Fold Activation <200%) | < 1000 | Cc1nc(-c2ccccc2)sc1-c1nc2c(C(=O)Nc3cccnc3)cccc2[nH]1 [Compound 410] | –
30 | – | – | B (Fold Activation <200%) | 1000 to 25000 | O=C(Nc1ccccn1)c1cccc2[nH]c(-c3ccccc3OCCN3CCCC3)nc12 [Compound 472] | –
31 | – | – | – | – | Cc1nnc(NC(=O)c2cccc3[nH]c(-c4cccc(C(F)(F)F)c4)nc23)s1 [Compound 232] | EC1.5: B (EC1.5 1-25 uM); Fold Act. (percent maximum fold activation): A (Fold activation >200%)
32 | A (EC1.5<1.0 uM) | A (Fold activation >200%) | – | – | O=C(Nc1ccccn1)c1cc(F)cc2[nH]c(-c3ccc(OC[C@@H](O)CO)cc3C(F)F)nc12 [Compound 840] | –
33 | – | – | – | – | Cc1cnc(NC(=O)c2cccc3[nH]c(-c4ccc(F)cc4C(F)(F)F)nc23)s1 [Compound 357] | EC1.5: A (EC1.5<1.0 uM); Fold Act. (percent maximum fold activation): A (Fold activation >200%)
34 | – | – | – | – | O=C(Nc1nccs1)c1cccc2[nH]c(-c3ccc(N4CCOCC4)nc3)nc12 [Compound 247, 2-(6-morpholinopyridin-3-yl)-N-(thiazol-2-yl)-1H-benzo[d]imidazole-4-carboxamide] | EC1.5: A (EC1.5<1.0 uM); Fold Act. (percent maximum fold activation): A (Fold activation >200%)
35 | C (EC1.5 >25 uM) | B (Fold Activation <200%) | – | – | C[C@@H]1CN(c2ccc(C(F)(F)F)c(-c3nc4c(C(=O)Nc5ccccn5)cccc4[nH]3)c2)C[C@H](C)O1 [Compound 663] | –
36 | – | – | B (Fold Activation <200%) | 1000 to 25000 | CC1(C)Cc2cc(-c3nc4c(C(=O)Nc5ccccn5)cccc4[nH]3)ccc2O1 [Compound 498] | –
37 | A (EC1.5<1.0 uM) | A (Fold activation >200%) | – | – | Cc1cnc(NC(=O)c2cc(N3CCCC3)cc3[nH]c(-c4ccccc4C(F)F)nc23)s1 [Compound 790] | –
38 | – | – | – | – | O=C(Nc1cccc[n+]1[O-])c1cccc2[nH]c(-c3ccccc3C(F)(F)F)nc12 [Compound 329, 2-(2-(2-(trifluoromethyl)phenyl)-1H-benzo[d]imidazole-4-carboxamido)pyridine 1-oxide] | EC1.5: B (EC1.5 1-25 uM); Fold Act. (percent maximum fold activation): A (Fold activation >200%)
39 | – | – | – | – | O=C(Nc1nccs1)c1cccc2[nH]c(-c3ccc(C(F)(F)F)cc3)nc12 [Compound 209] | EC1.5: C (EC1.5 >25 uM); Fold Act. (percent maximum fold activation): B (Fold Activation <200%)
40 | – | – | B (Fold Activation <200%) | > 25000 | O=C(NC1CCOCC1)c1cccc2[nH]c(-c3cc(F)ccc3C(F)(F)F)nc12 [Compound 437] | –
41 | – | – | B (Fold Activation <200%) | 1000 to 25000 | O=C(Nc1ccccn1)c1cccc2[nH]c(-c3cc(F)cc(F)c3OCCN3CCOCC3)nc12 [Compound 586] | –
42 | – | – | – | – | CC1(C)Cc2cccc(-c3nc4c(C(=O)Nc5nccs5)cccc4[nH]3)c2O1 [Compound 383] | EC1.5: B (EC1.5 1-25 uM); Fold Act. (percent maximum fold activation): B (Fold Activation <200%)
